Experiments:
squalene synthetase = target: T1, squalene synthetase (Homo sapiens, UniProt P37268); experiment: Squalene synthetase inhibitory activity (human-derived enzyme prepared from HepG2 cells); format: biochemical; conditions: [1-3H] farnesyl pyrophosphate, 37° C., 45 minutes, read-out: Inhibitory Activity (IC50, 10^−9 M)
T1 construct: This suspension was used as the enzyme solution; endogenous in cells; host or cells: HepG2 human hepatic carcinoma cells; membrane fraction (105000×g sediment) of the sonicate
T1 sequence (P37268 1-417): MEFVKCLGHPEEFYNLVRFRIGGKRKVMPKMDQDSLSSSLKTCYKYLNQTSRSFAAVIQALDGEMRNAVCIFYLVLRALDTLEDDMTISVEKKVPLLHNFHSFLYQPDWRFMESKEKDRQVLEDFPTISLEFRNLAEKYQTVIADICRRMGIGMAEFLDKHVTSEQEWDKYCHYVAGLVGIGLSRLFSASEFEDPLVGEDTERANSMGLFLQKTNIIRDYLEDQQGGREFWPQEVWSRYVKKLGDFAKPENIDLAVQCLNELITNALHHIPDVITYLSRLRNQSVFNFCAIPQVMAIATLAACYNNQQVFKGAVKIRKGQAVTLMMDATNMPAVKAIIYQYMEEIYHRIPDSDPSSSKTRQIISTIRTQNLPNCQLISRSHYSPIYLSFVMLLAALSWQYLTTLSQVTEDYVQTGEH
Experimental: The squalene synthetase inhibitory activity was assayed as follows with the enzyme solutions prepared in accordance with the method described below.
More specifically, an enzyme solution (protein content 0.8 μg) prepared in accordance with the method described below was added to a solution (total volume 50 μl)) containing 5 μM [1-^3H] farnesyl pyrophosphate (specific activity 25 μCi/mole), 1 mM NADPH (nicotinamide adenine dinucleotide phosphate of reduced type), 5 mM MgCl2, 6 mM glutathione, a 100 mM buffer solution of potassium phosphate (pH 7.4) and a test drug (used as an aqueous solution or a DMSO solution), then the reaction was allowed to proceed at 37° C. for 45 minutes. To the reaction mixture was added 150 μl of a mixture of chloroform and methanol (1:2) to suspend the reaction, followed by adding 50 Al of chloroform and 50 μl of a 3N solution of sodium hydroxide. 50 μl of the chloroform layer (lower layer) containing the reaction mixture having squalene as the principal component and 3 ml of toluene-based liquid scintillator were mixed, and its radioactivity was determined by means of a liquid scintillation counter.
The squalene synthetase inhibitory activity was expressed in terms of the concentration inhibiting by 50% the radioactivity taken into the chloroform layer (IC50, molar concentration (M)), as shown in Table 7. Preparation of human-derived enzyme
Human hepatic carcinoma cells HepG2 (about 1×10^9 cells) obtained by incubation on a Dulbecco-modified Eagle's medium (37° C. in the presence of 5% CO2) containing 10% fetal bovine serum were suspended in 10 ml of an ice-cooled buffer solution (100 mM potassium phosphate buffer (pH 7.4), 30 mM nicotinamide and 2.5 mM MgCl2]. The cells were crashed by means of ultrasonication (for 30 seconds, twice). The sonicate thus obtained was subjected to centrifugation for 20 minutes (4° C.) with 10000×g. The supernatant layer was subjected to further centrifugation for 90 minutes (4° C.) with 105000×g. The sediment was then suspended in an ice-cooled 100 mM potassium phosphate buffer (pH 7.4), which was again subjected to centrifugation for 90 minutes (4° C.) with 105000×g. This fraction was suspended in an ice-cooled 100 mM potassium phosphate buffer solution (pH 7.4) (about 4 mg/ml protein concentration). This suspension was used as the enzyme solution.

[1] = system: Cholesterol biosynthesis in the liver; experiment: Assay of cholesterogenesis in the liver; format: in vivo; conditions: Wistar fatty rats, liver total sterol radioactivity from 14C sodium acetate
Experimental: Cholesterol biosynthesis in the liver of a rat was assayed as follows. Six-week old Wistar fatty rats were given orally a test compound [Compound 4-2 (suspended in a 0.5% methyl cellulose solution)], while the control group was orally given only a 0.5% methyl cellulose solution. One hour later, sodium acetate labelled with radioisotope ^14C (manufactured by Amasham) was given intravenously at the tail (10 μCi/0.3 ml physiological saline/rat). One hour layer, rats were sacrificed by decapitation, and 1.5 g of the first lobe of the liver was removed, which was saponified by immersing in 3.9 ml of an alkaline ethanol solution (KOH:EtOH=1:2) at 100° C. for two hours, followed by extraction with 5 ml each portion of petroleum ether three times. The extract solution was dried, which was dissolved in 3 ml of ethanol:acetone (1:1). To the solution was added 2 ml of a 0.5% digitonin-ethanol solution. The mixture was left standing for one hour. Resulting precipitates were collected as total sterol, and the radioactivity was measured by means of a liquid scintillation counter.

Row | SMILES | IC50 (squalene synthetase) [nM] | Cholesterogenesis inhibitory rate (%) ([1]; 0.6 mg/kg given orally) | Cholesterogenesis inhibitory rate (%) ([1]; 2.0 mg/kg given orally) | melting point [°C]
1 | COc1cccc([C@H]2O[C@H](CC(=O)N3CCC(CC(=O)O)CC3)C(=O)N(CC(C)(C)C)c3ccc(Cl)cc32)c1OC [Compound 4-2, N-[(3R,5S)-7-chloro-5-(2,3-dimethoxyphenyl)-1-neopentyl-2-oxo-1,2,3,5-tetrahydro-4,1-benzoxazepine-3-acetyl]piperidine-4-acetic acid] | 22 | 80.1 | 90.4 | 137 to 140
2 | COc1cccc([C@H]2O[C@H](CC(=O)N3CCC(Cc4nnn[nH]4)CC3)C(=O)N(CC(C)(C)C)c3ccc(Cl)cc32)c1OC [Compound 24, 5-[[N-[(3R,5S)-7-chloro-5-(2,3-dimethoxyphenyl)-1-neopentyl-2-oxo-1,2,3,5-tetrahydro-4,1-benzoxazepine-3-acetyl]piperidin-4-yl]methyl]1H(or 3H)-tetrazole] | 17 | – | – | 168 to 170
3 | COc1cccc([C@H]2O[C@H](CC(=O)N[C@@H](Cc3ccc(O)cc3)C(=O)O)C(=O)N(CC(C)(C)C)c3ccc(Cl)cc32)c1OC [Compound 4-26] | 15 | – | – | 160 to 162
4 | COc1cccc([C@H]2O[C@H](CC(=O)N3CCC(O)(C(=O)O)CC3)C(=O)N(CC(C)(C)C)c3ccc(Cl)cc32)c1OC [Compound 4-19] | 18 | – | – | 156 to 159
5 | COc1cccc([C@H]2O[C@H](CC(=O)NCC(O)CC(=O)O)C(=O)N(CC(C)(C)C)c3ccc(Cl)cc32)c1OC (stereo partly shown) [Compound 4-24] | 14 | – | – | 122 to 124
6 | COc1cccc([C@H]2O[C@H](CC(=O)N3CCC(CC(=O)NS(C)(=O)=O)CC3)C(=O)N(CC(C)(C)CO)c3ccc(Cl)cc32)c1OC [Compound 21, N-methylsulfonyl-[N-[(3R,5S)-7-chloro-5-(2,3-dimethoxyphenyl)-1-(3-hydroxy-2,2-dimethylpropyl)-2-oxo-1,2,3,5-tetrahydro-4,1-benzoxazepine-3-acetyl]piperidine]-4-acetamide] | 26 | – | – | 175 to 180
7 | COc1cccc([C@H]2O[C@H](CC(=O)N[C@@H](CC(=O)O)C(=O)O)C(=O)N(CC(C)(C)C)c3ccc(Cl)cc32)c1OC [Compound 4-10] | 11 | – | – | 145 to 150
